Common to all, as to type: in vivo, rat
The subject of assay [1] is methamphetamine self-administration. The experiment in a line: intravenous methamphetamine self-administration.
In assay [2] the test system is morphine self-administration. The experiment in a line: intravenous morphine self-administration. Conditions: 18-methoxycoronaridine 1 mg/kg i.p., dextromethorphan 5 mg/kg s.c. How it is done: Dextromethorphan hydrobromide (5 mg/kg; Sigma/RBI, St. Louis, Mo.) was dissolved in saline and injected subcutaneously 20 minutes before testing. Mecamylamine hydrochloride (1 mg/kg; Sigma/RBI, St. Louis, Mo.) was dissolved in physiological saline and injected intraperitoneally 30 minutes before testing. All rats received two injections. For rats that received a single drug, half of them also received the appropriate saline/vehicle injection corresponding to each of the other two drugs.
Naive female Long-Evans derived rats (250 g; Charles River, N.Y.) were maintained on a normal 12 h light cycle (lights on at 7:00 a.m., lights off at 7:00 p.m.). For all experiments the “Principles of Laboratory Animal Care” (NIH publication No. 85-23, revised 1985, which is hereby incorporated by reference) were followed.
The intravenous self-administration procedure described in Glick et al., “18-MC Reduces Methamphetamine and Nicotine Self-administration in Rats,” NeuroReport 11:2013-2015 (2000) (“Glick I”), which is hereby incorporated by reference, was employed. Briefly, responses on either of two levers (mounted 15 cm apart on the front wall of each operant test cage) were recorded on an IBM compatible computer with a Med Associates, Inc. interface. The intravenous self-administration system consisted of polyethylene-silicone cannulas constructed according to the design of Weeks, “Long-term Intravenous Infusion,” pp. 155-168 in Myers (ed.), Methods in Psychobiology, Vol. 2, New York: Academic Press (1972) (“Weeks”), which is hereby incorporated by reference; Instech harnesses and swivels; and Harvard Apparatus infusion pumps (#55-2222). Shaping of the bar-press response was initially accomplished by training rats to bar-press for water. Cannulas were then implanted in the external jugular vein according to procedures described in Weeks, which is hereby incorporated by reference. Self-administration testing began with a 16-h nocturnal session followed by daily 1-h sessions, 5 days (Monday-Friday) a week. A lever-press response produced a 10 μl infusion of drug solution (0.01 mg of morphine sulfate) in about 0.2 s or a 50 μl infusion of drug solution (0.025 mg of methamphetamine sulfate) in about 1 s. Since all rats generally weighed 250±20 g, each response delivered approximately 0.04 mg/kg of morphine or 0.1 mg/kg of methamphetamine. Experiments to assess the effects of experimental treatments were begun when baseline self-administration rates stabilized (≦10% variation from one day to the next across 5 days), usually after 2 weeks of testing.
Each data point represents the mean (±S.E.M.) percent of baseline of 6-8 rats. Significant differences between baseline and treatment are indicated by an asterisk (paired t-test, P<0.01-0.001).
Each data point represents the mean (±S.E.M.) percent of baseline of 5-8 rats. Significant differences between baseline and treatment are indicated by an asterisk (paired t-test), P<0.05-0.01).

The subject of assay [3] is nicotine self-administration. The experiment in a line: nicotine self-administration. The note with it: Example 7, FIGS. 11-12: mecamylamine 0.1 mg/kg i.p., 18-methoxycoronaridine 0.5 mg/kg i.p., dextromethorphan 0.5 mg/kg s.c., bupropion 5 mg/kg i.p.; 5-8 rats.
Setting [4] is: Example 6, FIG. 9: mecamylamine 1 mg/kg i.p., 18-methoxycoronaridine 5 mg/kg i.p., dextromethorphan 10 mg/kg s.c., bupropion 10 mg/kg i.p., 5-9 rats.
The mark [5] stands for this setting: Example 6, FIG. 8: mecamylamine 1 mg/kg i.p., bupropion 5 mg/kg i.p., 5-8 rats.

With `CC(NC(C)(C)C)C(=O)c1cccc(Cl)c1` (stereo not drawn) [bupropion, m-chloro-α-tert-butylaminopropiophenone], the “effect on methamphetamine self-administration (percent of baseline)” value in assay [1] (setting [4]) is on record as “none of the drugs administered alone, significantly decreased”. Moreover, in assay [2] (setting [5]), the “effect on morphine self-administration (percent of baseline)” value is recorded as “none of the drugs administered alone, significantly decreased”. Further, the “effect on nicotine self-administration (percent of baseline)” value in assay [3] is given as “none of the drugs administered alone, significantly decreased”.
For the molecule `COc1ccc2c(c1)[C@]13CCCC[C@@H]1[C@H](C2)N(C)CC3` [dextromethorphan], the “effect on methamphetamine self-administration (percent of baseline)” value in assay [1] (Example 5, FIG. 6: mecamylamine 1 mg/kg i.p., 18-methoxycoronaridine 2 mg/kg i.p., dextromethorphan 5 mg/kg s.c., 6-7 rats) was “none of the drugs administered alone, significantly decreased”; in assay [1] (setting [4]), “none of the drugs administered alone, significantly decreased”. Also, the “effect on morphine self-administration (percent of baseline)” value in assay [2] (Example 5, FIG. 5: mecamylamine 1 mg/kg i.p., 6-8 rats) was “none of the drugs administered alone, significantly decreased”; in assay [2] (setting [5]), “none of the drugs administered alone, significantly decreased”. Further, the “effect on nicotine self-administration (percent of baseline)” value in assay [3] is recorded as “none of the drugs administered alone, significantly decreased”.

(Values after patent publication US6780871B2, “Methods and compositions for treating addiction disorders” (Albany Medical College, priority 2001, dated 2004).)
